ChEMBL document CHEMBL3399965, “Application of cultured human mast cells (CHMC) for the design and structure-activity relationship of IgE-mediated mast cell activation inhibitors” (Bioorg Med Chem Lett, 2015)
The source made the active and inactive calls. The calls are words filed in the database; no cut-off is given here.

Assays:
[1] = biological target: T1, Tyrosine-protein kinase SYK (Homo sapiens, UniProt P43405); experiment: Inhibition of SYK in human mast cell cultures assessed as reduction in ionomycin-induced calcium mobilization mediated degranulation by tryptase release assay
[2] = biological target: T1, Tyrosine-protein kinase SYK; experiment: Inhibition of SYK in human mast cell cultures assessed as reduction in IgE-induced FCepsilonR1 mediated degranulation by tryptase release assay

SMILES | inhibition [1] | EC50 [2] | inhibition [2] | EC50 [1]
COCCOc1cccc(Nc2ncc(F)c(Nc3cccc(OCCOC)c3)n2)c1 | inactive | 4150 nM | – | –
CNC(=O)COc1cccc(Nc2ncc(F)c(Nc3ccc(C(F)(F)F)cc3)n2)c1 | inactive | 210 nM | – | –
Fc1cnc(Nc2cccc(Cl)c2)nc1Nc1cccc(Cl)c1 | inactive | 5810 nM | – | –
Fc1cnc(Nc2ccc(N3CCOCC3)cc2)nc1Nc1ccc(N2CCOCC2)cc1 | inactive | 4140 nM | – | –
OCCOc1cccc(Nc2nc(Nc3cccc(O)c3)ncc2F)c1 | inactive | 670 nM | – | –
Oc1cccc(Nc2ncc(F)c(Nc3cccc(O)c3)n2)c1 | inactive | – | – | –
Oc1cccc(Nc2ncc(-c3ccccc3)c(Nc3cccc(O)c3)n2)c1 | inactive | 2900 nM | – | –
CNC(=O)COc1cccc(Nc2ncc(F)c(Nc3ccc(C(C)(C)C)cc3)n2)c1 | – | 430 nM | – | 10000 nM
Oc1cccc(Nc2cc(-c3ccccc3)nc(Nc3cccc(O)c3)n2)c1 | inactive | 5800 nM | – | –
CNC(=O)COc1cccc(Nc2ncc(F)c(Nc3ccc(N4CCOCC4)cc3)n2)c1 | inactive | 1290 nM | – | –
CNC(=O)COc1cccc(Nc2ncc(F)c(Nc3ccc(OC(F)(F)F)cc3)n2)c1 | inactive | 400 nM | – | –
N#Cc1cnc(Nc2cccc(O)c2)nc1Nc1cccc(O)c1 | inactive | 440 nM | – | –
Oc1cccc(Nc2ncc(C(F)(F)F)c(Nc3cccc(O)c3)n2)c1 | inactive | 270 nM | – | –
CCOC(=O)CNc1cccc(Nc2ncc(F)c(Nc3cccc(O)c3)n2)c1 | inactive | 330 nM | – | –
Oc1cccc(Nc2ncc(Br)c(Nc3cccc(O)c3)n2)c1 | inactive | 230 nM | – | –
CC(C)(CO)c1ccc(Nc2nc(Nc3cccc(OCCO)c3)ncc2F)cc1 | inactive | 280 nM | – | –
Fc1cnc(Nc2cccc(OC(F)(F)F)c2)nc1Nc1cccc(OC(F)(F)F)c1 | inactive | 5080 nM | – | –
OCc1cccc(Nc2ncc(F)c(Nc3cccc(CO)c3)n2)c1 | inactive | 2800 nM | – | –
CNC(=O)CNc1cccc(Nc2ncc(F)c(Nc3cccc(O)c3)n2)c1 | inactive | – | – | –
NC(=O)COc1ccc(Nc2ncc(F)c(Nc3cccc(O)c3)n2)cc1 | – | 530 nM | – | 10000 nM
N#Cc1cccc(Nc2ncc(F)c(Nc3cccc(C#N)c3)n2)c1 | inactive | 950 nM | – | –
N#CCOc1ccc(Nc2ncc(F)c(Nc3cccc(O)c3)n2)cc1 | – | – | – | 10000 nM
Fc1cnc(Nc2ccc(C(F)(F)F)cc2)nc1Nc1ccc(C(F)(F)F)cc1 | inactive | – | inactive | –
NC(=O)COc1ccc(Nc2nc(Nc3cccc(O)c3)ncc2F)cc1 | – | 1550 nM | – | 10000 nM
Nc1ccc(Nc2ncc(F)c(Nc3ccc(N)cc3)n2)cc1 | inactive | 4250 nM | – | –
OCCOc1cccc(Nc2ncc(F)c(Nc3cccc(OCCO)c3)n2)c1 | inactive | 930 nM | – | –
Cc1cnc(Nc2cccc(O)c2)nc1Nc1cccc(O)c1 | inactive | 900 nM | – | –
COc1cccc(Nc2ncc(F)c(Nc3cccc(OC)c3)n2)c1 | inactive | 1730 nM | – | –

The remaining lines, values ahead:

inhibition [1] | EC50 [2] | inhibition [2] | EC50 [1] | SMILES
inactive | 2200 nM | – | – | CC(C)Oc1ccc(Nc2ncc(F)c(Nc3ccc(OC(C)C)cc3)n2)cc1
inactive | 370 nM | – | – | N#CCOc1ccc(Nc2ncc(F)c(Nc3ccc(OCC#N)cc3)n2)cc1
inactive | – | inactive | – | CCOc1ccc(Nc2ncc(C)c(Nc3ccc(OCC)cc3)n2)cc1
inactive | 500 nM | – | – | Oc1cccc(Nc2ccnc(Nc3cccc(O)c3)n2)c1
inactive | – | inactive | – | O=C(O)COc1ccc(Nc2ncc(F)c(Nc3ccc(OCC(=O)O)cc3)n2)cc1
– | 940 nM | – | 10000 nM | COC(=O)COc1ccc(Nc2nc(Nc3ccc(OCC(N)=O)cc3)ncc2F)cc1
inactive | 3100 nM | – | – | CCOc1cccc(Nc2ncc(F)c(Nc3cccc(OCC)c3)n2)c1
inactive | 1100 nM | – | – | CCOc1ccc(Nc2nc(Nc3cccc(OCC(=O)NC)c3)ncc2F)cc1
– | 430 nM | – | 2480 nM | COC(=O)COc1ccc(Nc2ncc(F)c(Nc3ccc(OCC(N)=O)cc3)n2)cc1
inactive | 760 nM | – | – | Cn1nnnc1COc1ccc(Nc2ncc(F)c(Nc3ccc(OCc4nnnn4C)cc3)n2)cc1
inactive | – | inactive | – | Fc1cnc(Nc2ccc(OCc3nnn[nH]3)cc2)nc1Nc1ccc(OCc2nnn[nH]2)cc1
inactive | – | inactive | – | NC(=O)COc1ccc(Nc2ncc(F)c(Nc3ccc(OCC(N)=O)cc3)n2)cc1
inactive | 9830 nM | – | – | N#Cc1ccc(Nc2ncc(F)c(Nc3ccc(C#N)cc3)n2)cc1
– | 380 nM | – | 1700 nM | COC(=O)COc1ccc(Nc2ncc(F)c(Nc3ccc(OCC(=O)OC)cc3)n2)cc1
inactive | – | – | – | CCOc1ccc(Nc2ncc(F)c(Nc3ccc(OCC)cc3)n2)cc1
inactive | 3380 nM | – | – | CCOc1ccc(Nc2ccnc(Nc3ccc(OCC)cc3)n2)cc1
inactive | 1430 nM | – | – | COc1ccc(Nc2ncc(F)c(Nc3ccc(OC)cc3)n2)cc1
inactive | 3400 nM | – | – | Oc1ccc(Nc2ncc(F)c(Nc3ccc(O)cc3)n2)cc1
inactive | – | inactive | – | CCOc1ccc(Nc2cc(Cl)nc(Nc3ccc(OCC)cc3)n2)cc1
